These results are taken from patent publication US11021690B2, “Mutant-type uricase, PEG modified mutant-type uricase, and application thereof” (SHANGHAI INSTITUTE OF BIOLOGICAL PRODUCTS CO., LTD., priority 2015, dated 2021).

By Km is commonly meant the concentration of substrate that gives half-maximal velocity. What is called Vmax is the rate approached at saturating substrate. As a reminder, the kcat is the maximal rate divided by the concentration of active sites.

In test [1] the test system is PEG-K103C: recombinant urate oxidase (uricase, PBC, SEQ ID NO: 1) mutant K103C, PEG-modified (mPEG-MAL, approximately 20 kD). The experiment in a line: Determination of Michaelis constant of PEG-modified K103C (uric acid oxidation, UV absorbance at 290 nm). Type of test: biochemical. As to conditions: substrate uric acid, after PEG modification. How it is done:
(§1) The activity of uricase was detected by UV spectrophotometry, enzymatic reaction rate was detected by measuring the decrease in absorbance at 290 nm caused by the oxidation of uric acid to allantoin. The enzyme activity unit is defined as follows: at 37° C., pH 8.5, the amount of uricase needed to catalyze the decomposition of 1 μmol of uric acid per minute is defined as 1 enzyme activity unit. The efficacy of uricase is represented as the activity unit of protein per mg (U/mg). […] Therefore, the oxidation of 1 μM uric acid in the reaction caused the reduction of absorbance by 12.04 mAu. The absorbance is derived from the linear part as the changes of the uric acid concentration. Wherein the calculation formula of enzyme activity is shown as follows: Enzyme activity (U/ml)=(ODb−ODt)*Vt*df/12.04*1.0*Vs*t
(§2) (Odb: the absorbance value in a blank control tube; Odt: the absorbance value in a detection tube; Vt: the total reaction volume, 1.28 ml; df: the dilution fold before sample addition to the system; Vs: the total volume after adding the test sample of uricase, 0.2 ml; t: the reaction time, 5 min; 12.04: the molar extinction coefficient of the substrate, uric acid under the test conditions; 1.0: optical path of cuvette, 1.0 cm) Enzyme activity (U/mg)=(U/ml)/C
(§3) (1) 1 mL of uric acid working solution was added to 2 EP tubes, respectively, marked as a reaction tube and a control tube, and subjected to the warm bath at 37° C. for 5 mins;
(§4) (2) Reaction tube: 200 μL of diluted enzyme solution was added at 37° C., and reacted for 5 min; control tube: no treatment at 37° C. and reacted for 5 min;
(§5) (3) Reaction tube: 80 μL, 20% of KOH was added to quench the reaction; control tube: after 80 μL, 20% of KOH was added to quench the reaction, 200 μL of diluted enzyme solution was added;
(4) UV absorption wavelength was determined at 290 nm. […]
(§6) By comparing Michaelis constant, the maximum enzymatic reaction rate and the catalytic constant of the mutant K103C before and after PEG modification, the effect of PEG modification on mutant uricase was evaluated.

For test [2], the system named is recombinant urate oxidase K103C (uricase, PBC, SEQ ID NO: 1, mutant K103C), unmodified. The experiment in a line: Determination of Michaelis constant of unmodified K103C (uric acid oxidation, UV absorbance at 290 nm). Format: biochemical. As to conditions: substrate uric acid, before PEG modification. How it is done: as §1, §2, §3, §4, §5
(4) UV absorption wavelength was determined at 290 nm.
as §6

Consider `O=c1[nH]c(=O)c2[nH]c(=O)[nH]c2[nH]1` [uric acid], for which, in test [1], the Michaelis-Menten constant (Km) came to 10.8 µM, the maximal velocity (Vmax) was 1.823 µM/min and the kcat came out at 12.396 s⁻¹. Further, in test [2], the Km was determined as 11.4 µM, the Vmax turned out to be 2.333 µM/min and the kcat was 15.864 s⁻¹.
